We go through one molecule from ChEMBL document CHEMBL4619773, “Chemoreactive-Inspired Discovery of Influenza A Virus Dual Inhibitor to Block Hemagglutinin-Mediated Adsorption and Membrane Fusion” (J Med Chem, 2020).

In this assay the test system is Influenza A virus. Format: functional, organism-based.

In turn, `CC(=O)c1cc(C)c(O)c(Cc2[nH]c3ccccc3c2Cc2c(O)c(C)cc(C(C)=O)c2O)c1O` gave an IC50 of over 42 µg/mL.
